Data taken from US8916554B2, “Amino-derivatives as novel inhibitors of histone deacetylase” (Janssen Pharmaceutica N.V., priority 2002, dated 2014).
Converted amounts (≈) assume the structure as drawn. Where two headings read alike, the source gives them in different places.

Experiments:
[1] = not given; remark: listed apart in the source
[2] = biological target: histone deacetylase (HDAC), HeLa nuclear extracts; assay: In vitro assay for inhibition of histone deacetylase; format: biochemical; parameters: key: pIC50 = negative log of IC50; settings: [3H]acetylated histone H4 peptide substrate
Procedure: The in vitro assay for inhibition of histone deacetylase (see example C.1) measures the inhibition of HDAC enzymatic activity obtained with the compounds of formula (I).
HeLa nuclear extracts (supplier: Biomol) were incubated at 60 μg/ml with 2×10^−8 M of radiolabeled peptide substrate. As a substrate for measuring HDAC activity a synthetic peptide, i.e. the amino acids 14-21 of histone H4, was used. The substrate is biotinylated at the NH2-terminal part with a 6-aminohexanoic acid spacer, and is protected at the COOH-terminal part by an amide group and specifically [^3H]acetylated at lysine 16. The substrate, biotin-(6-aminohexanoic)Gly-Ala-([^3H]-acetyl-Lys-Arg-His-Arg-Lys-Val-NH2), was added in a buffer containing 25 mM Hepes, 1 M sucrose, 0.1 mg/ml BSA and 0.01% Triton X-100 at pH 7.4. After 30 min the deacetylation reaction was terminated by the addition of HCl and acetic acid. (final concentration 0.035 mM and 3.8 mM respectively). After stopping the reaction, the free ^3H-acetate was extracted with ethylacetate. After mixing and centrifugation, the radioactivity in an aliquot of the upper (organic) phase was counted in a β-counter.
For each experiment, controls (containing HeLa nuclear extract and DMSO without compound), a blank incubation (containing DMSO but no HeLa nuclear extract or compound) and samples (containing compound dissolved in DMSO and HeLa nuclear extract) were run in parallel. In first instance, compounds were tested at a concentration of 10^−5M. […] In each test the blank value was substracted from both the control and the sample values. The control sample represented 100% of substrate deactylation. For each sample the radioactivity was expressed as a percentage of the mean value of the controls. […] Herein the effects of test compounds are expressed as pIC50 (the negative log value of the IC50-value).

[3] = test system: human A2780 ovarian carcinoma cells; assay: Determination of antiproliferative activity on A2780 cells (MTT); format: cell-based; settings: four days of incubation; for IC50: Homo sapiens, 96 h, read-out: Cellular activity pIC50 (converted)
Procedure: Cellular activity of the compounds of formula (I) was determined on A2780 tumour cells using a colorimetric assay for cell toxicity or survival (Mosmann Tim, Journal of Immunological Methods 65: 55-63, 1983)(see example C.2).
All compounds tested were dissolved in DMSO and further dilutions were made in culture medium. Final DMSO concentrations never exceeded 0.1% (v/v) in cell proliferation assays. Controls contained A2780 cells and DMSO without compound and blanks contained DMSO but no cells. MTT was dissolved at 5 mg/ml in PBS. A glycine buffer comprised of 0.1 M glycine and 0.1 M NaCl buffered to pH 10.5 with NaOH (1 N) was prepared (all reagents were from Merck).
The human A2780 ovarian carcinoma cells (a kind gift from Dr. T. C. Hamilton [Fox Chase Cancer Centre, Pennsylvania, USA]) were cultured in RPMI 1640 medium supplemented with 2 mM L-glutamine, 50 μg/ml gentamicin and 10% fetal calf serum. Cells were routinely kept as monolayer cultures at 37° C. in a humidified 5% CO2 atmosphere. Cells were passaged once a week using a trypsin/EDTA solution at a split ratio of 1:40. All media and supplements were obtained from Life Technologies. Cells were free of mycoplasma contamination as determined using the Gen-Probe Mycoplasma Tissue Culture kit (supplier: BioMérieux).
Cells were seeded in NUNC™ 96-well culture plates (Supplier: Life Technologies) and allowed to adhere to the plastic overnight. Densities used for plating were 1500 cells per well in a total volume of 200 μl medium. After cell adhesion to the plates, medium was changed and drugs and/or solvents were added to a final volume of 200 μl. Following four days of incubation, medium was replaced by 200 μl fresh medium and cell density and viability was assessed using an MTT-based assay. To each well, 25 μl MTT solution was added and the cells were further incubated for 2 hours at 37° C. The medium was then carefully aspirated and the blue MTT-formazan product was solubilized by addition of 25 μl glycine buffer followed by 100 μl of DMSO. […] Within an experiment, the results for each experimental condition are the mean of 3 replicate wells. For initial screening purposes, compounds were tested at a single fixed concentration of 10^−6 M. For active compounds, the experiments were repeated to establish full concentration-response curves. For each experiment, controls (containing no drug) and a blank incubation (containing no cells or drugs) were run in parallel. The blank value was subtracted from all control and sample values. For each sample, the mean value for cell growth (in absorbance units) was expressed as a percentage of the mean value for cell growth of the control. […] Herein the effects of test compounds are expressed as pIC50 (the negative log value of the IC50-value).

[4] = Kinetic solubility in aqueous media; format: physicochemical; settings: aqueous buffer, kinetic from dmso stock; phosphate citrate buffer pH 7.4, turbidity by nephelometer; read-out: Solubility Score
Procedure: Kinetic solubility in aqueous media measures the ability of a compound to stay in aqueous solution upon dilution (see example C.3).
DMSO-stock solutions are diluted with a single aqueous buffer solvent in 3 consecutive steps. For every dilution turbidity is measured with a nephelometer.
In the first dilution step, 10 μl of a concentrated stock-solution of the active compound, solubilized in DMSO (5 mM), was added to 100 μl phosphate citrate buffer pH 7.4 and mixed. In the second dilution step, an aliquot (20 μl) of the first dilution step was further dispensed in 100 μl phosphate citrate buffer pH 7.4 and mixed. Finally, in the third dilution step, a sample (20 μl) of the second dilution step was further diluted in 100 μl phosphate citrate buffer pH 7.4 and mixed. All dilutions were performed in 96-well plates. Immediately after the last dilution step the turbidity of the three consecutive dilution steps were measured with a nephelometer. Dilution was done in triplicate for each compound to exclude occasional errors. Based on the turbidity measurements a ranking is performed into 3 classes. Compounds with high solubility obtained a score of 3 and for this compounds the first dilution is clear. Compounds with medium solubility obtained a score of 2. For these compounds the first dilution is unclear and the second dilution is clear. […] The solubility of 14 compounds was measured.

Compound	melting point	% metabolism ([1]; human, 15 min, 5 μM)	Enzyme activity pIC50 [2]	IC50 [3]	solubility [4]	Cellular activity pIC50 [3]	% metabolism ([1]; after 15 min of incubation with active microsomes (1 mg/ml), compound 5 μM)
O=C(NO)c1ccc(NC2CCCN(S(=O)(=O)c3ccc(-c4ccccc4)cc3)CC2)nc1 (stereo not shown) (hydrate or solvate) [Co. No. 2]	115 °C						
COc1cc(N)c(Cl)cc1C(=O)NC1CCN(CCCOc2ccc(F)cc2)CC1OC (stereo not shown) [Cisapride]		45%					
O=C(NO)c1ccc(NC2CCN(S(=O)(=O)c3ccc4ccccc4c3)CC2)nc1 [Co. No. 1]	160 °C		7.676	2.45 µM	> 454 µM		
O=C(NO)c1ccc(NC2CCCN(S(=O)(=O)c3ccc(-c4ccccc4)cc3)CC2)nc1 (stereo not shown) [Co. No. 2]			6.871	1.57 µM	< 75.8 µM		
O=C(NO)c1cnc(NC2CCCN(S(=O)(=O)c3ccc4ccccc4c3)CC2)nc1 (stereo not shown) [Co. No. 3]	140 °C		7.306	3.12 µM	75.8 to 454 µM (≈ 33.5 to 201 µg/mL)		
CCCO [propanol]							25%

Further lines, with some results ahead:

melting point	% metabolism ([1]; human, 15 min, 5 μM)	Enzyme activity pIC50 [2]	IC50 [3]	solubility [4]	Cellular activity pIC50 [3]	Compound	% metabolism ([1]; after 15 min of incubation with active microsomes (1 mg/ml), compound 5 μM)
115 °C						O=C(NO)c1ccc(NC2CCCN(S(=O)(=O)c3ccc4c(c3)CCCC4)CC2)nc1 (stereo not shown) (hydrate or solvate) [Co. No. 6]	
227 °C		7.314	1.45 µM	< 75.8 µM		O=C(NO)c1cnc(NC2CCCN(S(=O)(=O)c3ccc(-c4ccccc4)cc3)CC2)nc1 (stereo not shown) [Co. No. 4]	
256 °C		7.525	3.37 µM	> 454 µM		O=C(NO)c1cnc(NC2CCN(S(=O)(=O)c3ccc4ccccc4c3)CC2)nc1 [Co. No. 5]	
		6.853	4.52 µM	75.8 to 454 µM (≈ 33.7 to 202 µg/mL)		O=C(NO)c1ccc(NC2CCCN(S(=O)(=O)c3ccc4c(c3)CCCC4)CC2)nc1 (stereo not shown) [Co. No. 6]	
240 °C		7.408	7.78 µM	< 75.8 µM		O=C(NO)c1cnc(NCC2CCN(S(=O)(=O)c3ccc4ccccc4c3)CC2)nc1 [Co. No. 7]	
137 °C		7.23	1.9 µM	< 75.8 µM		O=C(NO)c1cnc(NCC2CCCN(S(=O)(=O)c3ccc4ccccc4c3)C2)nc1 (stereo not shown) [Co. No. 8]	
226 °C		7.161	2.15 µM	> 454 µM		O=C(NO)c1cnc(NCC2CN(S(=O)(=O)c3ccc4ccccc4c3)CCO2)nc1 (stereo not shown) [Co. No. 9]	
		7.077			5.201	O=C(NO)c1cnc(NC2CCN(S(=O)(=O)c3ccc(-c4ccccc4)cc3)CC2)nc1 [compound 14]	
